Test systems include HCC-2998 colon; HOP-62 NSCLC; KM12 colon; M14 melanoma; MALME-3M melanoma; MCF7 breast; NCI-H460 lung; SK-MEL-28 melanoma; SK-MEL-5 melanoma; T-47D breast; TK-10 renal; UACC-257 melanoma; UACC-62 melanoma; UO-31 renal; HS 578T breast; CCRF-CEM leukemia.
What all share (test): NCI-60 cell line screen, 48 h

The structures appear in SMILES notation.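 Grown in 96-well plates, cells were treated for 48 hours with each compound at five concentrations. Insufficient inhibition: endpoint recorded as highest concentration tested. TGI: total growth inhibition.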

For the compound `CCOP(=O)(OCC)/C(C#N)=C/c1cccn1CC(C)C`, the TGI in the test on HCC-2998 colon, in the test on HOP-62 NSCLC, in the test on KM12 colon, in the test on M14 melanoma, in the test with MALME-3M melanoma and with MCF7 breast was greater than 100 µM each time. Moreover, the TGI with NCI-H460 lung, with SK-MEL-28 melanoma, in the test with SK-MEL-5 melanoma, with T-47D breast, in the test with TK-10 renal and in the test on UACC-257 melanoma was greater than 100 µM each time. Besides, the TGI in the test on UACC-62 melanoma and with UO-31 renal was greater than 100 µM each time.
Turning to `COc1ccc2oc(C(=O)N3CC(CCl)c4ccc([N+](=O)[O-])cc43)cc2c1` (configuration not stated), the TGI in the test with HCC-2998 colon is greater than 100 µM; with HOP-62 NSCLC it was 31.5 µM; with HS 578T breast it was 62.2 µM; with KM12 colon, greater than 100 µM; in the test with M14 melanoma, greater than 100 µM; with NCI-H460 lung, greater than 100 µM. In addition, the TGI in the test with SK-MEL-28 melanoma, with SK-MEL-5 melanoma, in the test on T-47D breast, in the test with TK-10 renal, with UACC-257 melanoma and in the test on UACC-62 melanoma was greater than 100 µM in each case. The compound also had a TGI in the test with UO-31 renal greater than 100 µM.
Regarding `N/N=C1\CCCc2c1no[n+]2[O-]`, the TGI in the test with CCRF-CEM leukemia, in the test with HCC-2998 colon, in the test with HOP-62 NSCLC, in the test with HS 578T breast, in the test on KM12 colon and with M14 melanoma was greater than 100 µM throughout. Moreover, the TGI in the test on MALME-3M melanoma, with MCF7 breast, in the test with NCI-H460 lung, in the test with SK-MEL-28 melanoma, with SK-MEL-5 melanoma and in the test with TK-10 renal was greater than 100 µM in each case. Moreover, the TGI in the test with UACC-257 melanoma, with UACC-62 melanoma and in the test on UO-31 renal was greater than 100 µM each time.
Regarding `COc1ccc(O)c(C=NCCCN=Cc2cc(OC)ccc2O)c1`, the TGI was 83.5 µM in the test on CCRF-CEM leukemia; greater than 100 µM in the test with HOP-62 NSCLC; 68 µM with HS 578T breast; 64.6 µM in the test on KM12 colon; greater than 100 µM in the test with M14 melanoma; 62.7 µM in the test on MALME-3M melanoma. In addition, the TGI in the test on MCF7 breast was 56.9 µM; in the test on NCI-H460 lung, greater than 100 µM; with SK-MEL-28 melanoma, greater than 100 µM; in the test on TK-10 renal it was greater than 100 µM; in the test on UACC-257 melanoma, 69.5 µM; in the test on UACC-62 melanoma, 84.5 µM. For the same compound, the TGI with UO-31 renal was greater than 100 µM.
Consider `COc1ccc([C@H]2CC(=O)NCCCCN2)cc1`, for which the TGI in the test on CCRF-CEM leukemia, in the test with HOP-62 NSCLC, with KM12 colon, in the test with M14 melanoma, in the test with MALME-3M melanoma and with NCI-H460 lung was greater than 100 µM in each case. Besides, the TGI with SK-MEL-28 melanoma, with SK-MEL-5 melanoma, in the test on TK-10 renal, in the test on UACC-257 melanoma, with UACC-62 melanoma and in the test with UO-31 renal was greater than 100 µM throughout.
With `O=S(CCCl)c1c2ccccc2nc2ccccc12` (configuration not stated), the TGI in the test on CCRF-CEM leukemia, with HCC-2998 colon, with HOP-62 NSCLC, in the test on KM12 colon, in the test on M14 melanoma and in the test with MALME-3M melanoma was greater than 100 µM each time. Besides, the TGI with MCF7 breast, in the test with NCI-H460 lung, with SK-MEL-28 melanoma, with T-47D breast, with TK-10 renal and in the test on UACC-257 melanoma was greater than 100 µM throughout. Also, the TGI in the test with UACC-62 melanoma and with UO-31 renal was greater than 100 µM throughout.
Take `CCOC(=O)CCC(NC(=O)Cc1ccc(Oc2nc3ccccc3nc2-c2cccs2)cc1)C(=O)OCC` (configuration not stated): the TGI with CCRF-CEM leukemia was greater than 100 µM; with HCC-2998 colon, greater than 100 µM; with HOP-62 NSCLC, 11.8 µM; in the test on HS 578T breast, 81.1 µM; with KM12 colon, greater than 100 µM; in the test with M14 melanoma it was greater than 100 µM. Besides, the TGI is greater than 100 µM in the test on MALME-3M melanoma; greater than 100 µM with MCF7 breast; greater than 100 µM with NCI-H460 lung; greater than 100 µM in the test on SK-MEL-28 melanoma; greater than 100 µM in the test with SK-MEL-5 melanoma; 69.2 µM in the test on TK-10 renal. Also, the TGI in the test on UACC-257 melanoma was greater than 100 µM; with UACC-62 melanoma it was greater than 100 µM; in the test on UO-31 renal, 72.7 µM.
On to `CC(=O)O[C@H]1C(=O)[C@@]2(C)C(C(OC(=O)c3ccccc3)[C@]3(O)CC(OC(=O)C(O)C(NC(=O)c4ccc(C)cc4)c4ccccc4)C(C)=C1C3(C)C)[C@]1(OC(C)=O)CO[C@@H]1C[C@@H]2O` (some centres not stated), for which the TGI in the test on CCRF-CEM leukemia was greater than 25 µM; in the test with HOP-62 NSCLC, 14.1 µM; in the test on KM12 colon, 19.8 µM; in the test with MALME-3M melanoma, 11.5 µM; in the test on NCI-H460 lung, greater than 25 µM; in the test on SK-MEL-5 melanoma, 16.8 µM. The TGI in the test on TK-10 renal was 9.47 µM; in the test on UACC-257 melanoma, greater than 25 µM; in the test on UACC-62 melanoma it was 7.44 µM; with UO-31 renal, 9.23 µM.
Regarding `CC(CO)C1=CC(C#CCOCc2ccccc2)N(C(=O)Oc2ccccc2)c2ccccc21` (configuration not stated), the TGI in the test on CCRF-CEM leukemia is greater than 100 µM; in the test on HCC-2998 colon, greater than 100 µM; in the test with HOP-62 NSCLC, greater than 100 µM; in the test with HS 578T breast it was 53.5 µM; in the test on KM12 colon, 82.9 µM; with M14 melanoma, greater than 100 µM. Further, the TGI in the test with NCI-H460 lung was 91.8 µM; in the test with SK-MEL-28 melanoma, greater than 100 µM; in the test on SK-MEL-5 melanoma, 74.5 µM; with T-47D breast, greater than 100 µM; with TK-10 renal, greater than 100 µM; in the test with UACC-257 melanoma, 88.2 µM. Also, the values for the TGI in the test with UACC-62 melanoma and in the test with UO-31 renal were 22.9 µM and greater than 100 µM, respectively.
For the compound `O=C(OCC1OC(c2nn[nH]n2)C(OC(=O)c2ccccc2)C1OC(=O)c1ccccc1)c1ccccc1` (configuration not stated), the TGI in the test on CCRF-CEM leukemia, in the test with HCC-2998 colon, with HOP-62 NSCLC, in the test on KM12 colon, in the test with MALME-3M melanoma and in the test with MCF7 breast was greater than 100 µM throughout. Also, the TGI in the test on NCI-H460 lung, in the test with SK-MEL-5 melanoma, in the test with TK-10 renal, with UACC-257 melanoma, in the test with UACC-62 melanoma and in the test with UO-31 renal was greater than 100 µM each time.

For the origin of these results see PubChem BioAssay (NCI).
